Data set [1] relates to IL-6 promoter (p1168hu.IL6P-luc+). Type of data set: cell-based, mouse. The settings on record: added 2 h before 2000 IU/ml TNF, total 8 h.
In data set [2] the test system is AP-1 (p1168(κBmut)IL6P-luc+). It is filed as cell-based, mouse. Conditions: 60 nM STS.
For data set [3], the system named is NF-κB (p1168(AP-1mut)IL6P-luc+). It is filed as cell-based, mouse. Conditions: 2000 IU/ml TNF.
The test system of data set [4] is NF-κB (p(IL6κB)350hu.IL6P-luc+). Type of data set: cell-based, mouse. The settings on record: 0.1, 1 or 10 μM CpdA compared with 1 μM DEX, 2000 IU/ml TNF.
Data set [5] relates to E-selectin promoter (pE-selectin-Luc). Type of data set: cell-based, mouse. The settings on record: 2000 IU/ml TNF.
The subject of data set [6] is GRE-driven promoter (p(GRE)2-50-luc+). Type of data set: cell-based, mouse.
Data set [7] relates to endogenous murine IL-6 production. Nature of the data set: Murine IL-6 ELISA on supernatant of TNF-induced L929sA cells. The settings on record: 1 μM and 10 μM, 2000 IU/ml TNF, 8 h. It is filed as cell-based, mouse.
In data set [8] the test system is NF-κB reporter p(IL6-κB)350hu.IL6P-luc+, GR dependence. It is filed as cell-based, human. Conditions: mock DNA versus pSVhGRα, 2000 IU/ml TNF.
The next data set has as its system pNF-κB-Luc. Nature of the data set: TNF-activated pNF-κB-Luc (E1B TATA) in HEK293T cells. It is filed as cell-based, human. Conditions: 2000 IU/ml TNF.
Data set [9] concerns NF-κB DNA-binding activity (IL-6 NF-κB response element). Nature of the data set: EMSA of NF-κB DNA-binding activity in L929sA cells. Type of data set: cell-based, mouse. Conditions: all concentrations indicated, added 2 h before TNF (2000 IU/ml), total 4 h.
Data set [10] concerns Gal4-p65 chimeric protein. Nature of the data set: Gal4-p65 transactivation of p(Gal)2-50hu.IL6P-luc+ in L929sA cells. Type of data set: cell-based, mouse.
The next data set has as its system JNK p46 and p54. Nature of the data set: MAPK activation assay (phospho-specific Western blot), JNK, L929sA cells. Type of data set: cell-based, mouse. Conditions: 2000 IU/ml TNF 15 minutes. (In general: In western blotting, separated proteins are transferred to a membrane and probed.)
A short description of data set [11]: Stability of the compound on storage and in solution. It is filed as physicochemical. Conditions: solid, storage. The text has this:
The invention further relates to compositions, preferably pharmaceutical compositions, comprising as an active ingredient at least one of the compounds as defined in formula (I) together with (pharmaceutically) acceptable excipients. […] The preferred compound exerting this activity is 2(4-acetoxyphenyl)-2-chloro-N-methyl-ethylammonium chloride and has a molecular weight of 264.14.

For data set [12] the following is noted: kept in solution (especially at pH5 and above); cited from earlier work.
In a further data set the test system is oestrus cycle. Conditions: rats; cited from earlier work.
In data set [13] the test system is NF-κB DNA-binding activity (IL-6 NF-κB response element). Conditions: L929sA cells, previously demonstrated; cited from earlier work.

Structures are written as SMILES. Read-outs that look alike come from different tables or passages of the source.

`CNCC(Cl)c1ccc(OC(C)=O)cc1.Cl` (stereo not shown) [CpdA, 2-(4-acetoxyphenyl)-2-chloro-N-methyl-ethylammonium chloride]: the results for the “inhibition of TNF induction of p1168hu.IL6P-luc+ (relative luciferase induction factor)” value in data set [1] (0.1 μM) and in [1] (1 μM) were “downmodulatory effect” and “lowers the relative luciferase induction factor to almost the same extent as 1 μM DEX”, respectively. The “inhibition of STS-induced AP-1-mediated transactivation” value in [2] (0.1, 1 and 10 μM) is listed as “capable of inhibiting the STS-induced transactivation”. In addition, the “inhibition of TNF-induced NF-κB-mediated transactivation of p1168(AP-1mut)IL6P-luc+” value in data set [3] (1 μM and 10 μM) is listed as “capable of significantly inhibiting the TNF-induced promoter activity”. Also, the “inhibition of TNF-activated p(IL6κB)350hu.IL6Pluc+” value in [4] was “inhibits, to a similar extent as DEX”. The “inhibition of TNF-induced pE-selectin-luc+” value in data set [5] (1 μM) is reported as “also effective, though to a lesser extent”; in [5] (10 μM), “inhibits the TNF-activated reporter to the same extent as 1 μM DEX, i.e. to background levels”. The “transactivation of p(GRE)2-50-luc+” value in data set [6] (0.1 and 10 μM, 8 h) was “lack of activity”. For the same compound, the “effect on DEX-induced p(GRE)2-50-luc+ transactivation” value in [6] (CpdA together with 1 μM DEX) is “competition for GR molecules present in the cell”. In addition, the “lowering of TNF-induced IL-6 protein levels” value in data set [7] is reported as “able to efficiently lower these TNF-induced levels”. Moreover, the “repression of TNF-activated p(IL6-κB)350hu.IL6P-luc+” value in data set [8] (10 μM) is on record as “only when GR is present”. Also, in the data set on pNF-κB-Luc (10 μM), the “repression of TNF-activated pNF-κB-Luc” value was “not able to mediate repression of pNF-κB-Luc”. Further, the “effect on NF-κB DNA-binding activity” value in data set [9] is reported as “no change of NF-κB DNA-binding activity is observed”. For the same compound, the “inhibition of the activity of Gal4p65” value in [10] (10 μM) is “able to halfmaximally inhibit the activity of Gal4p65”. The “effect on amount of phosphorylated (activated) JNK” value with JNK p46 and p54 (1 or 10 μM for 2 h) is “does not affect the amount of activated JNK p46 and p54”. Moreover, in [11], the “hygroscopicity and light sensitivity” value was “hygroscopic and sensitive to light”. For the same compound, in [12], the stability in solution entry is “starts to cyclise to the corresponding aziridine”. In the data set with oestrus cycle, the “effect on oestrus cycle” value was “disrupts the oestrus cycle of rats”.
For the compound `C[C@@H]1C[C@H]2[C@@H]3CCC4=CC(=O)C=C[C@]4(C)[C@@]3(F)[C@@H](O)C[C@]2(C)[C@@]1(O)C(=O)CO` [DEX, Dexamethasone, reference compound], the “inhibition of TNF induction of p1168hu.IL6P-luc+ (relative luciferase induction factor)” value in data set [1] (1 μM) is given as “efficiently be inhibited”. For the same compound, the “inhibition of STS-induced AP-1-mediated transactivation” value in data set [2] (1 μM) is recorded as “efficiently inhibits the AP-1-mediated transactivation”. In addition, the “inhibition of TNF-induced NF-κB-mediated transactivation of p1168(AP-1mut)IL6P-luc+” value in [3] (1 μM) was “efficiently inhibit this NF-κB-mediated transactivation”. In addition, the “inhibition of TNF-induced pE-selectin-luc+” value in data set [5] (1 μM) is “to background levels”. Further, the “transactivation of p(GRE)2-50-luc+ (induction factor)” value in [6] (1 μM, 8 h) is “at least 8 fold”. The “repression of TNF-activated p(IL6-κB)350hu.IL6P-luc+” value in data set [8] (1 μM) was “only when GR is present”. Further, the “repression of TNF-activated pNF-κB-Luc” value in the data set on pNF-κB-Luc (1 μM) was “not able to mediate repression of pNF-κB-Luc”. Moreover, the “inhibition of the activity of Gal4p65” value in data set [10] (1 μM) is recorded as “able to halfmaximally inhibit the activity of Gal4p65”. Besides, the “effect on amount of phosphorylated (activated) JNK” value with JNK p46 and p54 (1 μM for 2 h) is listed as “able to inhibit the amount of phosphorylated JNK”. The “effect on NF-κB DNA-binding capacities” value in data set [13] is given as “without affecting the DNA-binding capacities of NF-κB”.

The values are drawn from patent US7053120B2, “Use of carboxy compounds such as 2(4-acetoxyphenyl)2-chloro-N-methyl-ethylammonium chloride as anti-inflammatory agents” (priority 1999, dated 2006).
